Publication PMC12461331, “Screening of Medicines for Malaria Venture Open Boxes Identifies Potent SARS-CoV‑2 Papain-like Protease (PL^pro) Inhibitors” (ACS Omega, 2025)
Values after ≈ are worked out from the molar mass of the structure shown. Values joined by “and” are separate entries in the source; they are usually repeats but may differ in a detail not shown here. Identical values can stand only once. Like-named read-outs stand apart in the source and are kept apart here. Square brackets hold non-standard residues; d marks the D form. Peptide text beside a SMILES is read from it.

Tests used:
[1] = Human liver microsomal stability assay; settings: human; for half-life at 0.5 μM: pH 7.4
[2] = physchem; settings: 25 °C, kinetic from dmso stock
[3] = system: uninfected HeLa-ACE2 cells; settings: Hela-ACE2 Uninfected Cell Toxicity; for S0 / Sinf / nHill: curve fit; for qAC50: relation in column qAC50 Mode, unit not given
[4] = Mouse liver microsomal stability assay; settings: CD1, mouse, pH 7.4
[5] = female, BALB/c, mouse, 1 h, pH 7.4
[6] = in vitro; settings: CD1, mouse, microsomes, pH 7.4
[7] = system: SARS-CoV-2; settings: for Data Mode: Hela-ACE2 % Positive SARS-CoV-2; for S0 / Sinf / nHill: Hela-ACE2 % Positive SARS-CoV-2, curve fit
[8] = biological target: PL^pro (Severe acute respiratory syndrome coronavirus 2, UniProt P0DTD1); settings: 20 μM compound, 5 μM enzyme, average of triplicates with SD
[9] = in vitro; settings: PAMPA
[10] = in vitro; settings: human, uninfected HeLa-ACE2 cells
[11] = in vitro; settings: human, microsomes, pH 7.4
[12] = Plasma stability; settings: female, BALB/c, mouse, plasma, pH 7.4
[13] = physchem; settings: pH 7.4
[14] = system: HeLa-ACE2 cells; assay: cells; settings: Homo sapiens; for AC50: HeLa-ACE2, read-out: Log AC50 (converted)
[15] = system: HeLa-ACE2 cells; settings: for Data Mode / S0 / Sinf / nHill: Hela-ACE2 CoV-2 Total Cell count; for S0 / Sinf / nHill: curve fit; for HeLa-ACE2 Total Cell Efficacy (Sinf, note + or -): infected HeLa-ACE2 total cell count
[16] = system: SARS-CoV-2; assay: microbe, parasite or virus in culture; settings: for AC50: Severe acute respiratory syndrome coronavirus 2, HeLa-ACE2, read-out: Log AC50 (converted); for inhibition at 9.61 µM: Severe acute respiratory syndrome coronavirus 2, HeLa-ACE2, read-out: inhibition in the highest concentration tested
[17] = Chromatographic distribution coefficient (eLogD7.4); settings: pH 7.4
[18] = Kinetic solubility; settings: 25 °C, kinetic from dmso stock
[19] = Parallel artificial membrane permeability assay (PAMPA)
[20] = biological target: SARS-CoV-2 PL^pro (Severe acute respiratory syndrome coronavirus 2, UniProt P0DTD1); assay type: biochemical
[21] = uninfected HeLa-ACE2 CC50, supplement summary
[22] = uninfected HeLa-ACE2 CC50, uninfected HeLa-ACE2 cells, average of triplicates
[23] = HeLa-ACE2, read-out: HeLa-ACE2 Total cells EC50
[24] = Severe acute respiratory syndrome coronavirus 2, HeLa-ACE2, read-out: CoV-2 EC50
[25] = Severe acute respiratory syndrome coronavirus 2, HeLa-ACE2, read-out: SARS-CoV-2 EC50
[26] = Severe acute respiratory syndrome coronavirus 2, HeLa-ACE2, read-out: qAC50

SMILES | half-life at 0.5 μM ([1]; liver microsomes) | Data Mode [3] | S0 [3] | Sinf [3] | nHill [3] | qAC50 [3] | CoV2 Efficacy (delta S0:Sinf) ([7]; HeLa-ACE2) | Data Mode [7] | S0 [7] | Sinf [7] | nHill [7] | AC50 at 24 h [10] | CC50 at 24 h [10, 21] | CC50 at 24 h [10, 22] | half-life at 2 μM [12] | EC50 [14, 23] | EC50 ([14]; HeLa-ACE2, read-out: qAC50) | Data Mode [15] | AC50 [16] | inhibition at 9.61 µM [16] | also measured
C[C@H](c1cccc2ccccc12)N1CCC(C(=O)NCc2ccc(Cl)cc2)CC1 [Compound 12] | 28.5 min | decreasing | 0.4208 | -100 | 3.064 | 1.447e-5 | 104.049 | decreasing | 4.049 | -100 | 4 | 14.5 µM | 14.5 µM | 14.4 ± 0.2 µM | 2310 min | > 9.61 µM | > 9.61 µM | inactive | 2.97 µM | > 50% | solubility kinetic at 24 h ([2]; pH 2, aqueous buffer): > 24.1 µg/mL; solubility kinetic at 24 h ([2]; pH 7.4, aqueous buffer): 10.2 µg/mL (≈ 25.1 µM); half-life at 0.5 μM ([4]; liver microsomes): 12.3 min; plasma stability remaining 60 min ([5]; 2 μM): 89.75%; microsomal CLint at 0.5 μM [6]: 226 µL/min/mg; SI (average CC50/average EC50) ([7]; HeLa-ACE2): 4.8; SI (average CC50/average EC50) ([7]; supplement summary): 4.873; ΔT m [8]: 6.6 °C and 6.6 ± 0.2 °C; Papp at 5 h, 10 μM [9]: 0.25 ×10⁻⁶ cm/s; microsomal CLint at 0.5 μM [11]: 97.2 µL/min/mg; chromatographic logD [13]: 4.7; EC50 [16, 24]: 2.97 µM; EC50 [16, 25]: 2.9 ± 0.2 µM; EC50 [16, 26]: 2.97 µM
CC(c1cccc2ccccc12)N1CCC(C(=O)NCc2ccc(Cl)cc2)CC1 (stereo not shown) [Compound 13] | 15.1 min | decreasing | -6.029 | -100 | 4 | 1.885e-5 | 104.884 | decreasing | 4.884 | -100 | 3.857 | 18.9 µM | 18.9 µM | 18.8 ± 0.2 µM | 365 min | > 9.61 µM | > 9.61 µM | increasing (weakly active) | 3.71 µM | > 50% | solubility kinetic at 24 h ([2]; pH 2, aqueous buffer): > 24.4 µg/mL; solubility kinetic at 24 h ([2]; pH 7.4, aqueous buffer): > 13.4 µg/mL; half-life at 0.5 μM ([4]; liver microsomes): 9.19 min; plasma stability remaining 60 min ([5]; 2 μM): 46.83%; microsomal CLint at 0.5 μM [6]: 302 µL/min/mg; SI (average CC50/average EC50) ([7]; HeLa-ACE2): 5; SI (average CC50/average EC50) ([7]; supplement summary): 5.083; Tags (tier) ([7]; tier of the screening summary): 3 (EC50< 10 µM, Efficacy >40%, SI > 5 or CC50 not reached at maximum concentration tested); ΔT m [8]: 6.15 °C and 6.1 ± 0.4 °C; Papp at 5 h, 10 μM [9]: 0.3 ×10⁻⁶ cm/s; microsomal CLint at 0.5 μM [11]: 184 µL/min/mg; chromatographic logD [13]: 4.7; AC50 [14]: > 9.61 µM; S0 [15]: -15.6144; Sinf [15]: 100; nHill [15]: 0.852; HeLa-ACE2 Total Cell Efficacy (Sinf, note + or -) [15]: 0.852; EC50 [16, 24]: 3.71 µM; EC50 [16, 25]: 3.7 ± 0.5 µM; EC50 [16, 26]: 3.71 µM
COc1ccc(CNC(=O)C2CCN(C(C)c3cccc4ccccc34)C2)cc1 (stereo not shown) [Compound 17] |  | decreasing | -3.377 | -100 | 2.597 | 2.965e-5 | 107.984 | decreasing | 7.984 | -100 | 2.951 | 29.6 µM | 29.6 µM | 29.6 ± 0.2 µM | 770 min | > 9.61 µM | > 9.61 µM | increasing (weakly active) | 6.48 µM | > 50% | half-life at 0.5 μM ([1]; microsomes): 21.7 min; microsomal CLint at 0.5 μM ([1]; microsomes, pH 7.4, HLM CLint(mic), human liver microsomes): 128 µL/min/mg; chromatographic logD [17]: 4.25; solubility kinetic at 24 h ([18]; pH 2, aqueous buffer): > 24 µg/mL; solubility kinetic at 24 h ([18]; pH 7.4, aqueous buffer): > 19.9 µg/mL; half-life at 0.5 μM ([4]; microsomes): 10.3 min; microsomal CLint at 0.5 μM ([4]; microsomes): 270 µL/min/mg; plasma stability remaining 60 min [5]: 73.01%; Papp at 5 h, 10 μM [19]: 0.61 ×10⁻⁶ cm/s; AC50 [14]: > 9.61 µM; S0 [15]: -9.971; Sinf [15]: 100; nHill [15]: 1.233; HeLa-ACE2 Total Cell Efficacy (Sinf, note + or -) [15]: 1.233; EC50 ([16]; Severe acute respiratory syndrome coronavirus 2, HeLa-ACE2, read-out: CoV-2 EC50, HeLa-ACE2, supplement summary): 6.49 µM; EC50 ([16]; Severe acute respiratory syndrome coronavirus 2, HeLa-ACE2, read-out: SARS-CoV-2 EC50, HeLa-ACE2 cells, average of triplicates): 6.4 ± 0.4 µM; EC50 ([16]; Severe acute respiratory syndrome coronavirus 2, HeLa-ACE2, read-out: qAC50, Hela-ACE2 % Positive SARS-CoV-2, relation in column qAC50 Mode, unit inferred): 6.48 µM
C[C@@H](N)C(=O)N[C@H](CCCCN)C(=O)N[C@H](CCCNC(=N)N)C(=O)N[C@H](Cc1c[nH]cn1)C(=O)N[C@H](Cc1c[nH]cn1)C(=O)NCC(=O)N[C@H](Cc1ccc(O)cc1)C(=O)N[C@H](CCCCN)C(=O)N[C@H](CCCNC(=N)N)C(=O)N[C@H](CCCCN)C(=O)N[C@H](Cc1ccccc1)C(=O)N[C@H](Cc1c[nH]cn1)C(N)=O [P-113D] (H-[dA][dK][dR][dH][dH]G[dY][dK][dR][dK][dF][dH]-NH2) |  |  |  |  |  |  |  |  |  |  |  |  |  |  |  |  |  |  |  |  | inhibition of SARS-CoV-2 PL^pro ([20]; single dose 10 μM end point screen): ≥ 80%
NC[C@H]1O[C@H](O[C@H]2[C@H](O)[C@@H](O[C@H]3O[C@H](CO)[C@@H](O)[C@H](N)[C@H]3O)[C@H](N)C[C@@H]2N)[C@H](N)C[C@@H]1O [Tobramycin, reference compound] |  |  |  |  |  |  |  |  |  |  |  |  |  |  |  |  |  |  |  |  | inhibition of SARS-CoV-2 PL^pro [20]: ≥ 80%
